Activity calls are given as the source filed them. The rule behind the calls is not given here. Peptide text beside a SMILES is read from it.
Legend:
A549 = assay: Antiproliferative activity against human A549 cells harboring K-Ras G12C mutant assessed as cell proliferation at 10 to 30 uM by CellTitre-Glo assay; format: functional, cell-based
A-427 [1] = assay: Antiproliferative activity against human A427 cells harboring K-Ras G12D mutant assessed as cell proliferation at 30 uM by CellTitre-Glo assay relative to control; format: functional; details: read-out: Activity
A-427 [2] = assay: Antiproliferative activity against human A427 cells harboring K-Ras G12D mutant assessed as cell proliferation at 10 uM by CellTitre-Glo assay relative to control; format: functional; details: read-out: Activity
GTPase KRas [3] = biological target: GTPase KRas (Homo sapiens, UniProt P01116, G12C); assay: Inhibition of biotinylated K-Ras G12C mutant (unknown origin) assessed as reduction in SOS1 (564 to 1049 residues)-mediated BODIPY-GDP-GTP exchange after 1 hr by TR-FRET assay
Homo sapiens [4] = organism: Homo sapiens; assay: Selectivity ratio of IC50 for inhibition of biotinylated K-Ras G12C mutant (unknown origin) to IC50 for inhibition of biotinylated K-Ras G12D mutant (unknown origin)
GTPase KRas [5] = biological target: T1, GTPase KRas (Homo sapiens, UniProt P01116, G12D); assay: Inhibition of biotinylated K-Ras G12D mutant (unknown origin) assessed as reduction in SOS1 (564 to 1049 residues)-mediated BODIPY-GDP-GTP exchange after 1 hr by TR-FRET assay
Homo sapiens [6] = organism: Homo sapiens; assay: Selectivity ratio of IC50 for inhibition of biotinylated wild type K-Ras (unknown origin) to IC50 for inhibition of biotinylated K-Ras G12D mutant (unknown origin)
GTPase KRas [7] = biological target: GTPase KRas (Homo sapiens, UniProt P01116); assay: Inhibition of biotinylated wild-type K-Ras (unknown origin) assessed as inhibition of human SOS1 (564 to 1049 residues)-mediated BODIPY-GDP-GTP exchange after 1 hr by TR-FRET assay
GTPase KRas [8] = biological target: T1, GTPase KRas; assay: Inhibition of biotinylated K-Ras G12D mutant (unknown origin) assessed as reduction in SOS1 (564 to 1049 residues)-mediated BODIPY-GDP-GTP exchange after 1 hr in presence of DTT by TR-FRET assay

IC50 (GTPase KRas [3]) [nM] | Ratio IC50 (Homo sapiens [4]) | IC50 (GTPase KRas [5]) [nM] | Ratio IC50 (Homo sapiens [6]) | IC50 (GTPase KRas [7]) [nM] | IC50 (GTPase KRas [8]) [nM] | SMILES | Activity (A549) | growth at 30 µM (A-427 [1]) [%] | growth at 10 µM (A-427 [2]) [%]
 |  |  |  |  |  | CC[C@H](C)[C@@H]1NC(=O)[C@H](Cc2ccc(O)cc2)NC(=O)[C@H](CC(C)C)NC(=O)[C@@H]2CCCN2C(=O)[C@@H](NC(=O)[C@H](CCCNC(=N)N)NC(=O)[C@H](CCCNC(=N)N)NC(=O)[C@H](CCCNC(=N)N)NC(=O)[C@H](CCCNC(=N)N)NC(C)=O)CSCSC[C@@H](C(=O)N[C@@H](CCCNC(=N)N)C(=O)N[C@@H](CCCNC(=N)N)C(=O)N[C@@H](CCCNC(=N)N)C(=O)N[C@@H](CCCNC(=N)N)C(N)=O)NC(=O)[C@H](C(C)C)NC(=O)[C@@H]2CCCN2C(=O)[C@H](CC(=O)O)NC(=O)[C@H](Cc2ccc(O)cc2)NC(=O)[C@H](CO)NC1=O | inactive | 69.9 | 91
5190 | 0.3 | 20600 | 2 | 39300 | 73500 | CC(=O)N[C@@H](CCCNC(=N)N)C(=O)N[C@@H](CCCNC(=N)N)C(=O)N[C@@H](CCCNC(=N)N)C(=O)N[C@@H](CCCNC(=N)N)C(=O)N[C@H]1CSSC[C@@H](C(=O)N[C@@H](CCCNC(=N)N)C(=O)N[C@@H](CCCNC(=N)N)C(=O)N[C@@H](CCCNC(=N)N)C(=O)N[C@@H](CCCNC(=N)N)C(N)=O)NC(=O)[C@H](C(C)C)NC(=O)[C@@H]2CCCN2C(=O)[C@H](CC(=O)O)NC(=O)[C@H](Cc2ccc(O)cc2)NC(=O)[C@H](CO)NC(=O)[C@H](C)NC(=O)[C@H](Cc2ccc(O)cc2)NC(=O)[C@H](CC(C)C)NC(=O)[C@@H]2CCCN2C1=O (HELM PEPTIDE1{[ac].R.R.R.R.C.P.L.Y.A.S.Y.D.P.V.C.R.R.R.R.[am]}$PEPTIDE1,PEPTIDE1,6:R3-16:R3$$$V2.0) |  |  | 
36 | 6 | 6.3 | 121 | 764 | 22 | CC[C@H](C)[C@@H]1NC(=O)[C@H](Cc2ccc(O)cc2)NC(=O)[C@H](CC(C)C)NC(=O)[C@@H]2CCCN2C(=O)[C@@H](NC(=O)[C@H](CCCNC(=N)N)NC(=O)[C@H](CCCNC(=N)N)NC(=O)[C@H](CCCNC(=N)N)NC(=O)[C@H](CCCNC(=N)N)NC(C)=O)CSSC[C@@H](C(=O)N[C@@H](CCCNC(=N)N)C(=O)N[C@@H](CCCNC(=N)N)C(=O)N[C@@H](CCCNC(=N)N)C(=O)N[C@@H](CCCNC(=N)N)C(N)=O)NC(=O)[C@H](C(C)C)NC(=O)[C@@H]2CCCN2C(=O)[C@H](CC(=O)O)NC(=O)[C@H](Cc2ccc(O)cc2)NC(=O)[C@H](C)NC1=O (HELM PEPTIDE1{[ac].R.R.R.R.C.P.L.Y.I.A.Y.D.P.V.C.R.R.R.R.[am]}$PEPTIDE1,PEPTIDE1,6:R3-16:R3$$$V2.0) |  |  | 
358 | 6 | 64 | 65 | 4190 | 244 | CC[C@H](C)[C@@H]1NC(=O)[C@H](Cc2ccc(O)cc2)NC(=O)[C@H](CC(C)C)NC(=O)[C@@H]2CCCN2C(=O)[C@@H](NC(=O)[C@H](CCCNC(=N)N)NC(=O)[C@H](CCCNC(=N)N)NC(=O)[C@H](CCCNC(=N)N)NC(=O)[C@H](CCCNC(=N)N)NC(C)=O)CSSC[C@@H](C(=O)N[C@@H](CCCNC(=N)N)C(=O)N[C@@H](CCCNC(=N)N)C(=O)N[C@@H](CCCNC(=N)N)C(=O)N[C@@H](CCCNC(=N)N)C(N)=O)NC(=O)[C@H](C(C)C)NC(=O)[C@@H]2CCCN2C(=O)[C@H](CC(=O)O)NC(=O)[C@H](C)NC(=O)[C@H](CO)NC1=O (HELM PEPTIDE1{[ac].R.R.R.R.C.P.L.Y.I.S.A.D.P.V.C.R.R.R.R.[am]}$PEPTIDE1,PEPTIDE1,6:R3-16:R3$$$V2.0) |  |  | 
975 | 0.06 | 15400 | 4 | 65000 | > 100000 | CC[C@H](C)[C@@H]1NC(=O)[C@H](Cc2ccc(O)cc2)NC(=O)[C@H](CC(C)C)NC(=O)[C@@H]2CCCN2C(=O)[C@@H](NC(=O)[C@H](CCCNC(=N)N)NC(=O)[C@H](CCCNC(=N)N)NC(=O)[C@H](CCCNC(=N)N)NC(=O)[C@H](CCCNC(=N)N)NC(C)=O)CSSC[C@@H](C(=O)N[C@@H](CCCNC(=N)N)C(=O)N[C@@H](CCCNC(=N)N)C(=O)N[C@@H](CCCNC(=N)N)C(=O)N[C@@H](CCCNC(=N)N)C(N)=O)NC(=O)[C@H](C(C)C)NC(=O)[C@@H]2CCCN2C(=O)[C@H](C)NC(=O)[C@H](Cc2ccc(O)cc2)NC(=O)[C@H](CO)NC1=O (HELM PEPTIDE1{[ac].R.R.R.R.C.P.L.Y.I.S.Y.A.P.V.C.R.R.R.R.[am]}$PEPTIDE1,PEPTIDE1,6:R3-16:R3$$$V2.0) |  |  | 
12 | 4 | 2.7 | 80 | 216 | 7.4 | CC[C@H](C)[C@@H]1NC(=O)[C@H](Cc2ccc(O)cc2)NC(=O)[C@H](CC(C)C)NC(=O)[C@@H]2CCCN2C(=O)[C@@H](NC(=O)[C@H](CCCNC(=N)N)NC(=O)[C@H](CCCNC(=N)N)NC(=O)[C@H](CCCNC(=N)N)NC(=O)[C@H](CCCNC(=N)N)NC(C)=O)CSSC[C@@H](C(=O)N[C@@H](CCCNC(=N)N)C(=O)N[C@@H](CCCNC(=N)N)C(=O)N[C@@H](CCCNC(=N)N)C(=O)N[C@@H](CCCNC(=N)N)C(N)=O)NC(=O)[C@H](C(C)C)NC(=O)[C@H](C)NC(=O)[C@H](CC(=O)O)NC(=O)[C@H](Cc2ccc(O)cc2)NC(=O)[C@H](CO)NC1=O (HELM PEPTIDE1{[ac].R.R.R.R.C.P.L.Y.I.S.Y.D.A.V.C.R.R.R.R.[am]}$PEPTIDE1,PEPTIDE1,6:R3-16:R3$$$V2.0) |  |  | 
44 | 6 | 7.5 | 14 | 105 | 35.8 | CC[C@H](C)[C@@H]1NC(=O)[C@H](Cc2ccc(O)cc2)NC(=O)[C@H](CC(C)C)NC(=O)[C@@H]2CCCN2C(=O)[C@@H](NC(=O)[C@H](CCCNC(=N)N)NC(=O)[C@H](CCCNC(=N)N)NC(=O)[C@H](CCCNC(=N)N)NC(=O)[C@H](CCCNC(=N)N)NC(C)=O)CSSC[C@@H](C(=O)N[C@@H](CCCNC(=N)N)C(=O)N[C@@H](CCCNC(=N)N)C(=O)N[C@@H](CCCNC(=N)N)C(=O)N[C@@H](CCCNC(=N)N)C(N)=O)NC(=O)[C@H](C)NC(=O)[C@@H]2CCCN2C(=O)[C@H](CC(=O)O)NC(=O)[C@H](Cc2ccc(O)cc2)NC(=O)[C@H](CO)NC1=O (HELM PEPTIDE1{[ac].R.R.R.R.C.P.L.Y.I.S.Y.D.P.A.C.R.R.R.R.[am]}$PEPTIDE1,PEPTIDE1,6:R3-16:R3$$$V2.0) |  |  | 

Source: ChEMBL document CHEMBL4020739, “Investigation of the structural requirements of K-Ras(G12D) selective inhibitory peptide KRpep-2d using alanine scans and cysteine bridging” (Bioorg Med Chem Lett, 2017)
